Measured values published in patent publication EP0732331A1, “Novel benzothiophene compounds and methods for inhibiting lipoxygenase and leukotrienes” (ELI LILLY AND COMPANY, priority 1995, dated 1996).

What follows are molecules tested against T1, cPLA2 (Homo sapiens, UniProt P47712) (assay: Chromogenic cPLA2 enzyme assay). Details: C-PLA2 Enzyme.
T1 sequence (P47712 1-749): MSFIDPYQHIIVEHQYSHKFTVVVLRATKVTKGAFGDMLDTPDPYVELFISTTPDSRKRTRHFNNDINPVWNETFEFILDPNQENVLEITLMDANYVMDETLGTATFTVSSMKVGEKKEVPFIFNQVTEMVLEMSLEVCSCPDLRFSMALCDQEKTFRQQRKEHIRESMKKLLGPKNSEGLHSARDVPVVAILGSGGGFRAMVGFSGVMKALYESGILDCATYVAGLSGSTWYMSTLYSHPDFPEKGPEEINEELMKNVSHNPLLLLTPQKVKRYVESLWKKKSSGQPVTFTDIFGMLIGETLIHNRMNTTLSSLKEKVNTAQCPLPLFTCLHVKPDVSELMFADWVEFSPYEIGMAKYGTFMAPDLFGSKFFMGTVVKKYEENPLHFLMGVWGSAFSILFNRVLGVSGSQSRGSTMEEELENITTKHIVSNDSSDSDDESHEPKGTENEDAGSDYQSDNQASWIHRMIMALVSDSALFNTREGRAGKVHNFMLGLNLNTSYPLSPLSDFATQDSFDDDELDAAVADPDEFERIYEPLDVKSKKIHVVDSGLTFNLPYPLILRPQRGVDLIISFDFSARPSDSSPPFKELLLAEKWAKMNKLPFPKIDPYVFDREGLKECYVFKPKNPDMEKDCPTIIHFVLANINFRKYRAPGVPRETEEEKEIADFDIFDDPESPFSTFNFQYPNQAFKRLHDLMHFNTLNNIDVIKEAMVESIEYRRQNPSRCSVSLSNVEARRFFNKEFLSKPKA
Type: biochemical

SMILES | IC50 [nM]
Oc1ccc(-c2cc3ccc(O)cc3s2)cc1 [Compound B] | > 200000
O=C(c1cccc2ccccc12)c1c(-c2ccc(O)cc2)sc2cc(O)ccc12 [Example 2, 6-hydroxyphenyl-2-(p-hydroxyphenyl)-(benzo(B)thien-3-yl)(α-napthyl)methanone] | > 200000

These molecules were tested on MCII cells (assay: MCII Mast Cell Toxicity Assay (XTT)). Details: Mus musculus, Mast cell, read-out: Toxicity.
Type: cell-based
Description: This toxicity assay is run in parallel with the MCII mast cell LTC4 assay and serves as an indicator of compound effects on the viability and metabolic activity of the MCII cells. This "toxicity" assay is based on the ability of dehydrogenase enzymes present in viable metabolically active cells to bioreduce the tetrazolium salt XTT yielding a colored, water soluble formazan product. (see, Roehm et al.) "An improved colorimetric assay for cell proliferation and viability utilzing the tetrazolium salt XTT. J. Immunol. Methods 142:257-65 (1991).
A duplicate polystyrene 96-well tissue culture plate (Costar) is set up with sensitized MCII cells, EM95 ascites, media and dilutions of the test compound as described above. The complete media is supplemented with concanavalin A induced culture supernatants from the mouse helper T cell clone D10.G4, as a source of mast cell growth factors.
Wells of the toxicity assay plate are pulsed with 25 µl XTT (Sigma) plus phenazine methosulfate (Aldrich) giving a final concentration of 0.2 mg/ml XTT and 25 µM phenazine methosulfate. The plates are incubated at 37° C in 10% CO2 for 4-12 hours and then production of the XTT formazan product determined by measuring the optical density of the wells at a wavelength of 450 nm. The positive control on each plate is stimulated MCII cells with dimethyl sulfoxide vehicle alone and the negative control is the same reaction mixture without cells. The background negative control value is subtracted from experimental and positive control values and the data are reported as percent of positive control.

SMILES | IC50 [nM]
O=C(c1ccccc1)c1c(-c2ccc(O)cc2)sc2cc(O)ccc12 [Compound A] | 300

Same assay, conditions: Mus musculus; MCII Mast Cell; XTT reduction, 4-12 hours; read-out: Toxicity

SMILES | IC50 [nM]
Oc1ccc(-c2cc3ccc(O)cc3s2)cc1 [Compound B] | < 10000
O=C(c1ccc(-c2ccccc2)cc1)c1c(-c2ccc(O)cc2)sc2cc(O)ccc12 [Example 1] | > 10000
O=C(c1cccc2ccccc12)c1c(-c2ccc(O)cc2)sc2cc(O)ccc12 [Example 2, 6-hydroxyphenyl-2-(p-hydroxyphenyl)-(benzo(B)thien-3-yl)(α-napthyl)methanone] | > 10000
O=C(c1ccc2ccccc2c1)c1c(-c2ccc(O)cc2)sc2cc(O)ccc12 [Example 3, 6-hydroxyphenyl-2-(p-hydroxyphenyl)-(benzo(B)thien-3-yl)(β-napthyl)methanone] | > 10000

These molecules were tested on production of thromboxane B2 (TxB2) (assay: Inhibition of Eicosanoid Production by Plasma-depleted Blood: TxB2). Details: Homo sapiens, read-out: TxB2.
Type: cell-based
Procedure: (§1) Compounds are evaluated for their ability to inhibit production of leukotriene B4 (LTB4) and thromboxane B2 (TxB2) upon stimulation of human plasma-depleted blood with formyl-methionyl-leucyl-phenylalanine (FMLP) and thrombin. LTB4 is produced by neutrophils and TxB2 by platelets stimulated at their respective receptors with FMLP and thrombin. The assay is carried out in 1 ml deep well polypropylene 96-well plates (Beckman). For the test, ten ml of blood is collected in EDTA at a final concentration of 1.5 mg/ml. Then, 40 ml glucose phosphate buffer containing 0.1% gelatin is added and the suspension centrifuged at 900 g for 10 minutes at room temperature. The supernatant is discarded and the cells washed once with 50 ml buffer before resuspending them in 50 ml Krebs-Ringers-Henseleit Buffer containing 0.1% gelatin, 1 mM CaCl2, 1.1 mM MgCl2 (KRH buffer). Working solutions of test compounds are made by dissolving the material in DMSO at 10 mM and diluting with appropriate amounts of KRH buffer. An agonist solution is made containing 1 µM FMLP (sigma) and 10 units/ml of thrombin in KRH buffer (Enzyme Research Labs). The blood cell suspension is first warmed to 37° C for 5 minutes and then mixed with cytochalasin B (sigma) at a final concentration of 2 µg/ml. In each well, 200 µl of the compound solution is incubated with 250 µl of the blood cell, cytochalasin B suspension at 37° C for 10 min. Stimulation of eicosanoid production is begun by adding 50 µl of the agonist solution. The mixture is then incubated for 2 min. before stopping the reaction by adding 50 µl of a solution containing 275 mM EDTA, 110 µM indomethacin (sigma) and 110 µM of the 5-lipoxygenase inhibitor, N-hydroxy-N-[3-[2-(2-propynylthio)phenyl]-2-propenyl]urea. Subsequently, the plate is centrifuged and an aliquot of the supernatant fluid removed for analysis of the eicosanoid content. The amount of LTB4 and TxB2 produced is determined by the use of a competitive enzyme immunoassay using commercial reagents from Cayman Chemical.

SMILES | IC50 [nM]
O=C(c1ccccc1)c1c(-c2ccc(O)cc2)sc2cc(O)ccc12 [Compound A] | 4900
O=C(c1ccc(O)cc1)c1c(-c2ccc(O)cc2)sc2cc(O)ccc12 [Compound D] | > 9800

Same assay, conditions: Homo sapiens; Plasma DPLTD Blood; stimulated with FMLP and thrombin; read-out: TxB2

SMILES | IC50 [nM]
Oc1ccc(-c2cc3ccc(O)cc3s2)cc1 [Compound B] | 3300
COc1ccc(C(=O)c2c(-c3ccc(OC)cc3)sc3cc(OC)ccc23)cc1 [Compound C] | 2000 ± 600
O=C(c1ccc(-c2ccccc2)cc1)c1c(-c2ccc(O)cc2)sc2cc(O)ccc12 [Example 1] | 2400 ± 1200
O=C(c1cccc2ccccc12)c1c(-c2ccc(O)cc2)sc2cc(O)ccc12 [Example 2, 6-hydroxyphenyl-2-(p-hydroxyphenyl)-(benzo(B)thien-3-yl)(α-napthyl)methanone] | 4900 ± 2400
O=C(c1ccc2ccccc2c1)c1c(-c2ccc(O)cc2)sc2cc(O)ccc12 [Example 3, 6-hydroxyphenyl-2-(p-hydroxyphenyl)-(benzo(B)thien-3-yl)(β-napthyl)methanone] | 1400

The molecules below were run on production of leukotriene B4 (LTB4) (assay: Inhibition of Eicosanoid Production by Plasma-depleted Blood: LTB4). Details: Homo sapiens, read-out: LTB4.
Type: cell-based
Procedure: as §1

SMILES | IC50 [nM]
O=C(c1ccccc1)c1c(-c2ccc(O)cc2)sc2cc(O)ccc12 [Compound A] | 500
O=C(c1ccc(O)cc1)c1c(-c2ccc(O)cc2)sc2cc(O)ccc12 [Compound D] | 1600

Same assay, conditions: Homo sapiens; Plasma DPLTD Blood; stimulated with FMLP and thrombin; read-out: LTB4

SMILES | IC50 [nM]
Oc1ccc(-c2cc3ccc(O)cc3s2)cc1 [Compound B] | 800
COc1ccc(C(=O)c2c(-c3ccc(OC)cc3)sc3cc(OC)ccc23)cc1 [Compound C] | 1500 ± 400
O=C(c1ccc(-c2ccccc2)cc1)c1c(-c2ccc(O)cc2)sc2cc(O)ccc12 [Example 1] | 2200 ± 400
O=C(c1cccc2ccccc12)c1c(-c2ccc(O)cc2)sc2cc(O)ccc12 [Example 2, 6-hydroxyphenyl-2-(p-hydroxyphenyl)-(benzo(B)thien-3-yl)(α-napthyl)methanone] | 200 ± 100
O=C(c1ccc2ccccc2c1)c1c(-c2ccc(O)cc2)sc2cc(O)ccc12 [Example 3, 6-hydroxyphenyl-2-(p-hydroxyphenyl)-(benzo(B)thien-3-yl)(β-napthyl)methanone] | 200

The molecules below were run on production of LTC4 by the cytokine dependent mast cell line MCII (assay: MCII Mast Cell LTC4 Assay). Details: MCII Mast Cell; IgE-sensitized, stimulated with anti-mouse IgE EM95; read-out: LTC4.
Type: cell-based, mouse
Description: This assay measures the production of LTC4 by the cytokine dependent mast cell line MCII, stimulated by cross linking the high affinity Fc receptor for IgE (FcεR1).
The bone marrow derived, cytokine dependent mouse mast cell line MCII (Lilly Research Laboratories) is maintained in log phase growth in complete Dulbecco's' Modified Eagles Medium (GIBCO BRL) supplemented with fetal bovine serum (Hyclone), gentamicin, penicillin and streptomycin (GIBCO BRL) and using concanavalin A (ICN ImmunoBiologicals) induced culture supernatants from the mouse helper T cell clone D10.G4 (ATCC TIB 224) as a source of mast cell growth factors. The MCII cells are passively sensitized with mouse monoclonal IgE by incubation with an appropriate dilution of IgEL b4 (ATCC TIB 141) antibody ascites at 37° C for 60 minutes and then washed with Hank's Balanced Salt Solution (GIBCO BRL) to remove unbound IgE. The sensitized cells are then preincubated with drug in complete media for 10 minutes at 37° C in 96 well polypropylene plates (Costar). Each drug concentration is tested in triplicate at half log dilutions. The drug vehicle is dimethyl sulfoxide which is present at a final concentration of 0.32% in all wells.
There are 40,000 MCII cells per well in a final volume of 200 µl complete medium. The stimulated cells are incubated at 37° C for 10 minutes and then LTC4 production is stopped by addition of 25 µl of 180 mM EDTA to chelate extracellular Ca^++.
The amount of LTC4 produced is determined in a competitive enzyme immunoassay (EIA) using commercial reagents purchased from Cayman Chemical Co. In the EIA, free LTC4 in the sample competes with enzyme conjugated LTC4 for binding to immobilized anti-LTC4 antibody. The enzyme conjugated to LTC4 is acetylcholinesterase and Elman's reagent is the substrate for the enzyme. The concentration of LTC4 in the unknown sample is determined using a 4-parameter quadratic analysis of a standard curve generated by measuring the optical density resulting from the addition of known amounts of LTC4 to the EIA.
The positive control on each plate is stimulated MCII cells with dimethyl sulfoxide vehicle alone and the negative control is the same reaction mixture without cells. The background negative control value is subtracted from experimental and positive control values and the data are reported as percent of positive control.

SMILES | IC50 [nM]
Oc1ccc(-c2cc3ccc(O)cc3s2)cc1 [Compound B] | 700
COc1ccc(C(=O)c2c(-c3ccc(OC)cc3)sc3cc(OC)ccc23)cc1 [Compound C] | 6700 ± 3000
O=C(c1ccc(-c2ccccc2)cc1)c1c(-c2ccc(O)cc2)sc2cc(O)ccc12 [Example 1] | 4400
O=C(c1cccc2ccccc12)c1c(-c2ccc(O)cc2)sc2cc(O)ccc12 [Example 2, 6-hydroxyphenyl-2-(p-hydroxyphenyl)-(benzo(B)thien-3-yl)(α-napthyl)methanone] | 500 ± 200
O=C(c1ccc2ccccc2c1)c1c(-c2ccc(O)cc2)sc2cc(O)ccc12 [Example 3, 6-hydroxyphenyl-2-(p-hydroxyphenyl)-(benzo(B)thien-3-yl)(β-napthyl)methanone] | 3900 ± 1800
CC(C)(C)c1ccc(C(=O)c2c(-c3ccc(O)cc3)sc3cc(O)ccc23)cc1 [Example 8] | 3500 ± 2100

Same assay, conditions: Mus musculus, Mast cell, read-out: LTC4

SMILES | IC50 [nM]
O=C(c1ccccc1)c1c(-c2ccc(O)cc2)sc2cc(O)ccc12 [Compound A] | 7100 ± 500
COc1ccc(-c2sc3cc(OC)ccc3c2C(=O)c2cc(OC)c(O)c(OC)c2)cc1 [Example 7A] | 1500 ± 300
Cc1ccc(C(=O)c2c(-c3ccc(O)cc3)sc3cc(O)ccc23)cc1 [Example 9] | 800 ± 500
Cc1cccc(C(=O)c2c(-c3ccc(O)cc3)sc3cc(O)ccc23)c1 [Example 10] | 1100 ± 200
O=C(c1cccc(O)c1)c1c(-c2ccc(O)cc2)sc2cc(O)ccc12 [Example 11] | 2700
CC(c1cc2ccccc2s1)N(O)C(N)=O (stereo not shown) [Zileuton, (I)-N-(1-benzo[B]thien-2-ylethyl)-N-hydroxyurea, reference compound] | 500 ± 300

These molecules were tested against T2, cytosolic 5-lipoxygenase (Homo sapiens, UniProt P09917) (assay: 5-Lipoxygenase (5-LPO) Assay). Details: inhibition of leukotriene B4; human neutrophil 20,000 x g supernatant; 5 minutes at 37°C.
T2 construct: Cells are disrupted with sonication and the cytosolic fraction obtained by centrifugation at 20,000 x g; from tissue; host or cells: human peripheral blood neutrophils, 20,000 x g cytosolic supernatant
T2 sequence (P09917 1-674): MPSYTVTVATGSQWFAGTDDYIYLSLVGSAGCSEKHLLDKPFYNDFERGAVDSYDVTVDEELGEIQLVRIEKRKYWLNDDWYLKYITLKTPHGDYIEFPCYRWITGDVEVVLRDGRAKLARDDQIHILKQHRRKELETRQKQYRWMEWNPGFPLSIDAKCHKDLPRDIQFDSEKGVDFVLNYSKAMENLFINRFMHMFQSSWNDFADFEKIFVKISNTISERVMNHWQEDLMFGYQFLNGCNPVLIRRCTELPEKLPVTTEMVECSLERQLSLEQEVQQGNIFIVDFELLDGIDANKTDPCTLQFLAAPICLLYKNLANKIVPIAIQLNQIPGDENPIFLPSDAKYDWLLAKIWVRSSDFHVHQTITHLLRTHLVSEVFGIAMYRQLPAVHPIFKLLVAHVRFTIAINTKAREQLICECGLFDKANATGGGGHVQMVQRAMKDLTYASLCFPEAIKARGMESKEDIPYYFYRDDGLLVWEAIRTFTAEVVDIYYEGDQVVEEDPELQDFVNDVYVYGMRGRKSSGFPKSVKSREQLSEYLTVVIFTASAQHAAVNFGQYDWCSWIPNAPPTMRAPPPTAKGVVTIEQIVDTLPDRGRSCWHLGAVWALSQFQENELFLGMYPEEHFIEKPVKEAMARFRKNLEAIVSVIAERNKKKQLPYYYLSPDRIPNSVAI
Type: biochemical
Procedure: To determine the effect of compounds on 5-lipoxygenase activity, peripheral blood neutrophils are separated by density centrifugation as described (Marder et al., Prostaglandins Leukot. and Essent. Fatty Acids 46 , 265-270, 1992) and the cytosolic 5-lipoxygenase is prepared from isolated neutrophils according to a modification of Carter et al., (J. Pharmacol. Exp. Ther. 256 , 929-937 (1991)). Briefly, neutrophils are washed twice in buffer (in millimolar: PIPES, 10; BES, 10; and EDTA, 1; pH 6.8) and diluted to 2.5 x 10^7 cells/ml. Cells are disrupted with sonication and the cytosolic fraction obtained by centrifugation at 20,000 x g for 20 min. at 4°C. The resultant supernatant containing the cytosolic 5-lipoxygenase activity is stored frozen at -70°C prior to use. Compounds are evaluated for 5-lipoxygenase inhibitory activity. Varying concentration of compounds in 200 ml aliquots containing 50 ml of human 20,000 x g supernatant in assay buffer (in millimolar: PIPES, 10; BES, 10; EDTA, 1; NaCl, 100; ATP, 1.56; and CaCl2,, 2.5; pH 6.8) containing 3.0 mM AA are used. The reaction proceeds for 5 minutes at 37°C and is terminated upon the addition of 50 ml EDTA (250 mM). The percent inhibition of leukotriene B4 is determined for each concentration of test compound as compared to vehicle (containing no compound) control. […] Leukotriene B4 is determined by EIA.

SMILES | IC50 [nM]
COc1ccc(C(=O)c2c(-c3ccc(OC)cc3)sc3cc(OC)ccc23)cc1 [Compound C] | > 10000
